Patent US8940742B2, “Heterocyclic compounds and uses thereof” (Infinity Pharmaceuticals, Inc., priority 2012, dated 2015)

Columns and labels:
RAJI p110 δ = RAJI p110 δ (Homo sapiens, UniProt O00329); experiment: RAJI p110 δ cellular assay (phospho-AKT);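 note: potency based on lowered phosphorylated AKT in RAJI cells, as a readout of PI3K-δ dependent B-cell receptor signaling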
From the text: (a) PI3K-δ Selective Assay
Reduction of phospho-AKT is indicative of compounds that may inhibit B-cell proliferation and function in certain diseases.

PI3K α = molecular target: T1, PI3K α (Homo sapiens, UniProt P42336); experiment: PI3-Kinase Promega ADP-Glo Max assay; format: biochemical; settings: 20 nM kinase, 3 mM ATP, 500 uM diC8-PtdInsP
T1 construct: purchased Millipore
Outline: (§1)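 Human class I PI3K (20 nM α or δ, 40 nM β) pre-incubated 15 min with compound in HEPES pH 7.4 buffer with MgCl2, then reacted 2 h at room temperature with 3 mM ATP and 500 uM diC8-PtdInsP. ADP measured by ADP-Glo Max luminescence; % inhibition fitted to 4-parameter logistic for IC50.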

PI3K δ = molecular target: T2, PI3K δ (Homo sapiens, UniProt O00329); experiment: PI3-Kinase Promega ADP-Glo Max assay; format: biochemical; settings: 20 nM kinase, 3 mM ATP, 500 uM diC8-PtdInsP
T2 construct: purchased Millipore
T2 sequence (O00329 whole entry): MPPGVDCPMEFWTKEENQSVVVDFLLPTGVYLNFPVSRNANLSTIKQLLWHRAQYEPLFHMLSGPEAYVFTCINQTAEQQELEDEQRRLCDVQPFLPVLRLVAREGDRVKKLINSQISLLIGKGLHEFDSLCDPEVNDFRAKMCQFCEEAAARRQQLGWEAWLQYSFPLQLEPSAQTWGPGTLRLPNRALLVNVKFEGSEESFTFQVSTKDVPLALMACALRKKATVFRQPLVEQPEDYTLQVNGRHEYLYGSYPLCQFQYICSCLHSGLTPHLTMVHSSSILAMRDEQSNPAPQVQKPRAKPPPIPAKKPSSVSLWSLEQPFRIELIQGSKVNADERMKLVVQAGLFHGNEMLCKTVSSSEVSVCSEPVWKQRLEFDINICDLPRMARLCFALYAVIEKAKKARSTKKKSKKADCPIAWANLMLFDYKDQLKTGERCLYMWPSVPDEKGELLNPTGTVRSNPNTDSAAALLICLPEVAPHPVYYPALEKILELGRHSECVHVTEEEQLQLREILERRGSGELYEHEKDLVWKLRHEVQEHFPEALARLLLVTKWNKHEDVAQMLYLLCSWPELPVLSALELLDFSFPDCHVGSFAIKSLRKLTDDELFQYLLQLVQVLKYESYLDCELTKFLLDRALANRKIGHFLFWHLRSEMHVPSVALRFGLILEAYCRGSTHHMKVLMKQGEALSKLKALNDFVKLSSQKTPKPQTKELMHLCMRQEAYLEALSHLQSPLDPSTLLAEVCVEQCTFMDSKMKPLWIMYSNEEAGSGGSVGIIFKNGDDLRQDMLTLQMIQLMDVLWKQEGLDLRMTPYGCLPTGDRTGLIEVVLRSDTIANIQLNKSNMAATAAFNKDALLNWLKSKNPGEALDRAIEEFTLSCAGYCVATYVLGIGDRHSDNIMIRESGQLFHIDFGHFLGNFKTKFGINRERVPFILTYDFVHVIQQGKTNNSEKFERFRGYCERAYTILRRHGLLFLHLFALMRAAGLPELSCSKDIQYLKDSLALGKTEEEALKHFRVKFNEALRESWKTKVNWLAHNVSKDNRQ
T2 sequence (P27986 whole entry partner): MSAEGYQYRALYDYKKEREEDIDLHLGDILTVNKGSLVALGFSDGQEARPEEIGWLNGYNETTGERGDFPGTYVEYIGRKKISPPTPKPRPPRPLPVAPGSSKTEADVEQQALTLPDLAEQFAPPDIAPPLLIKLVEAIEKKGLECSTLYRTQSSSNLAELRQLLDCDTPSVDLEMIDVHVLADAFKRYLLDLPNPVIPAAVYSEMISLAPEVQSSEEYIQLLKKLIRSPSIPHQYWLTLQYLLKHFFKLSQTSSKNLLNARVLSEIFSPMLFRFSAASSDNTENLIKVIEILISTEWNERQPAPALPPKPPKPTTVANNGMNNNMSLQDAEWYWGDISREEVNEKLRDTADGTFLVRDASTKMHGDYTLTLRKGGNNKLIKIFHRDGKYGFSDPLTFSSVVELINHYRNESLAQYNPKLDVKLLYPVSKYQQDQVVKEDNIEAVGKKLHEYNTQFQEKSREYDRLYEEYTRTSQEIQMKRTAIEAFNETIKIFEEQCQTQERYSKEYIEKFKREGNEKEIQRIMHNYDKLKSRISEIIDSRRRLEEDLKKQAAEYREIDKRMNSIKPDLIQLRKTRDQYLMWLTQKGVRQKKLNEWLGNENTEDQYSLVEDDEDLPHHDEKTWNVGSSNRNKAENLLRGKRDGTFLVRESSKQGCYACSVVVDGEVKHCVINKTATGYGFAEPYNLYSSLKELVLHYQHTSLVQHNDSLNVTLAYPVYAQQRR
Outline: as §1

PI3K β = molecular target: T3, PI3K β (Homo sapiens, UniProt P42338); experiment: PI3-Kinase Promega ADP-Glo Max assay; format: biochemical; settings: 40 nM kinase, 3 mM ATP, 500 uM diC8-PtdInsP
T3 construct: purchased Millipore
T3 sequence (P42338 whole entry): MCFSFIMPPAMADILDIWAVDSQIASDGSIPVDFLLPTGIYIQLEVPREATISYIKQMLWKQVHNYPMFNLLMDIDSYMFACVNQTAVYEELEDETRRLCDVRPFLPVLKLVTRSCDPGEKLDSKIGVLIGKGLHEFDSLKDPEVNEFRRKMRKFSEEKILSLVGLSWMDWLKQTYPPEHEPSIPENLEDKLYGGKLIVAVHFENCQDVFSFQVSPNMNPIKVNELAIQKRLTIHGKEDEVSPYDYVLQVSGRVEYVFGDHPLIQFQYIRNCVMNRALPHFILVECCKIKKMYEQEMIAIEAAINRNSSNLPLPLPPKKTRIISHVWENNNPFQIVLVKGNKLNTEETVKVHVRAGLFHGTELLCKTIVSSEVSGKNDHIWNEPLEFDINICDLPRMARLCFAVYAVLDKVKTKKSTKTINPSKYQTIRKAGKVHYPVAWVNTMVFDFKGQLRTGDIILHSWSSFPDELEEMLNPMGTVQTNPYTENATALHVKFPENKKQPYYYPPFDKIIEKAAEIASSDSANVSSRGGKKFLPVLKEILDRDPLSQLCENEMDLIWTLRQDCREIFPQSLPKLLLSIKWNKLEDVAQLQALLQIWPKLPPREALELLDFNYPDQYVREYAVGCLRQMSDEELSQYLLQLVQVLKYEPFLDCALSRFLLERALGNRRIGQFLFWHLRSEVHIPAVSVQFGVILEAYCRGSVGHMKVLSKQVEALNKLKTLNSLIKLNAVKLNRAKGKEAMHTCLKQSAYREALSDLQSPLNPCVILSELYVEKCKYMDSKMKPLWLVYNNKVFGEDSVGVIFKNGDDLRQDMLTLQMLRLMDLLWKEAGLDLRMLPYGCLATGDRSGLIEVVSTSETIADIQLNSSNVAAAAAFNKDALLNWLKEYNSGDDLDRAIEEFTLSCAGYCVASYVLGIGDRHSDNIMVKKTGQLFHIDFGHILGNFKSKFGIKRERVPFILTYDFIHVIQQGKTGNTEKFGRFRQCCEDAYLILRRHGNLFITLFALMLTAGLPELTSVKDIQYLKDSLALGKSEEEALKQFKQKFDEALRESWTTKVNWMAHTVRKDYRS
T3 sequence (P27986 whole entry partner): as the sequence (P27986 whole entry partner) above
Outline: as §1

PI3K γ = molecular target: T4, PI3K γ (Homo sapiens, UniProt P48736); experiment: PI3-Kinase Promega ADP-Glo Max assay; format: biochemical; settings: 40 nM kinase, 3 mM ATP, 500 uM diC8-PtdInsP
T4 construct: purchased Millipore
T4 sequence (P48736 whole entry): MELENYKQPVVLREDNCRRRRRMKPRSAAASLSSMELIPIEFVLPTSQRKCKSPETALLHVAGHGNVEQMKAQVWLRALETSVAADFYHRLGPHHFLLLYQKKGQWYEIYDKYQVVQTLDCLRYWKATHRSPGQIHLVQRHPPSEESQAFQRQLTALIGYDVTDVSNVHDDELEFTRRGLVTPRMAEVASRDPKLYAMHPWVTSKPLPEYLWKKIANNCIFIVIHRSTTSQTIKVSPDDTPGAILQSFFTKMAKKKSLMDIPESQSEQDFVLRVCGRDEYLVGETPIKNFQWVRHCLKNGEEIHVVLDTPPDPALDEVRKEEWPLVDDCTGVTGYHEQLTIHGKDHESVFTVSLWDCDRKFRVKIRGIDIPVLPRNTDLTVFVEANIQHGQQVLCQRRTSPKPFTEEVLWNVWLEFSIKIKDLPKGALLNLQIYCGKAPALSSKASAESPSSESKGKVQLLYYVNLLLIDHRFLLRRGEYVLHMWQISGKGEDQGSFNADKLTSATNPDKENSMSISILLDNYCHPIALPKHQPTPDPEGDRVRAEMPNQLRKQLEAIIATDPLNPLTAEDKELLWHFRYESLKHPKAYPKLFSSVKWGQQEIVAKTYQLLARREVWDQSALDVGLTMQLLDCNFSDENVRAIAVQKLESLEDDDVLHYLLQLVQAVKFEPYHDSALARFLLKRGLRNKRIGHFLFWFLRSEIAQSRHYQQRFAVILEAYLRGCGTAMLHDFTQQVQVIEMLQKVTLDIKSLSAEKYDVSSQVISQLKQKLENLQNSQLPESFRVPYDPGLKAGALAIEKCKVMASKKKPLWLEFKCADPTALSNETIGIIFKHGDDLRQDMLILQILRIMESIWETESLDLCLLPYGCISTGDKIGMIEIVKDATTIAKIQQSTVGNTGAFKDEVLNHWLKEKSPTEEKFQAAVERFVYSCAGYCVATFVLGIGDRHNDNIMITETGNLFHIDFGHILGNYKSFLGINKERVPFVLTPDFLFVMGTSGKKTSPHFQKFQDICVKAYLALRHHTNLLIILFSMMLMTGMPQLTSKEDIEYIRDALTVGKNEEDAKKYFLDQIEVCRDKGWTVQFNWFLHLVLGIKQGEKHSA
Outline: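 Human class I PI3K reactions ran 2 hours at room temperature, followed by stop solution (40 min) and detection mix (1 hour) before luminescence reading.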

Raw264.7 p110 γ = molecular target: T5, Raw264.7 p110 γ (Mus musculus, UniProt Q9JHG7); experiment: Raw264.7 p110 γ cellular assay (phospho-AKT); format: cell-based; settings: serum-starved RAW264.7 cells stimulated with C5a
T5 construct: reduction of phospho-AKT in stimulated RAW 264.7 cells; endogenous in cells; host or cells: RAW264.7 macrophages
From the text: (b) PI3K-γ Selective Assay
Briefly, serum-starved PAW264.7 cells are stimulated with a known GPCR agonist C5a. […] Cells can be treated with test compounds prior to, simultaneously with, or subsequent to the stimulation by C5a. RAW 264.7 cells respond to the complement component fragment C5a through activation of the C5a receptor, and the C5a receptor activates macrophages and induces cell migration.

[1] = reference compound, 5 μM; cited from earlier work

RAJI p110 δ, sequence (O00329 whole entry): as the sequence (O00329 whole entry) above
RAJI p110 δ, sequence (P27986 whole entry partner): as the sequence (P27986 whole entry partner) above

| Compound | IC50 (RAJI p110 δ) [µM] | IC50 (PI3K α) [µM] | IC50 (PI3K δ) [µM] | IC50 (PI3K β) [µM] | IC50 (PI3K γ) [µM] | IC50 (Raw264.7 p110 γ) [µM] | plasma stability [1] |
| --- | --- | --- | --- | --- | --- | --- | --- |
| C[C@H](NC(=O)c1nc(-c2cccc(S(=O)(=O)NC3CC3)c2)cnc1N)c1cc2cccc(Cl)c2c(=O)n1C [Compound 194] | < 0.1 | 0.1 to 1 | 0.1 to 1 | < 0.1 | < 0.1 | < 0.1 |  |
| C[C@H](NC(=O)c1c(N)nn2cccnc12)c1cc2cccc(Cl)c2c(=O)n1C1CCCCC1 [Compound 196] | < 0.1 | 1 to 10 | 1 to 10 | 1 to 10 | 1 to 10 | < 0.1 |  |
| C[C@H](NC(=O)c1c(N)nn2cccnc12)c1cc2cccc(C=O)c2c(=O)n1-c1ccccc1 [Compound 201] | 0.1 to 1 | > 10 | 1 to 10 | 1 to 10 | 1 to 10 | < 0.1 |  |
| CC(=O)Nc1cccc(-c2cccc3cc([C@H](C)NC(=O)c4c(N)nn5cccnc45)n(-c4ccccc4)c(=O)c23)c1 [Compound 202] | < 0.1 | 1 to 10 | 1 to 10 | > 10 | 0.1 to 1 | 0.1 to 1 |  |
| C[C@H](NC(=O)c1c(N)nn2cccnc12)c1cc2scc(-c3cnn(C)c3)c2c(=O)n1-c1ccccc1 [Compound 209] | 1 to 10 | > 10 | > 10 | > 10 | 1 to 10 | 0.1 to 1 |  |
| C[C@H](NC(=O)c1c(N)nn2cccnc12)c1cc2scc(Cl)c2c(=O)n1-c1ccccc1 [Compound 212] | < 0.1 | 1 to 10 | 0.1 to 1 | 0.1 to 1 | < 0.1 | < 0.1 |  |
| C[C@H](NC(=O)c1c(N)nn2cccnc12)c1cc2cccc(-c3cnn(C)c3)c2c(=O)n1-c1ccccc1 [Compound 222] | < 0.1 | > 10 | 1 to 10 | > 10 | 0.1 to 1 | < 0.1 |  |
| C[C@H](NC(=O)c1c(N)nn2cccnc12)c1cc2sccc2c(=O)n1-c1ccccc1 [Compound 225] | 0.1 to 1 | > 10 | 1 to 10 | 1 to 10 | 1 to 10 | 0.1 to 1 |  |
| C[C@H](NC(=O)c1c(N)nn2cccnc12)c1cc2cccc(C#N)c2c(=O)n1-c1ccccc1 [Compound 227] | < 0.1 | > 10 | 1 to 10 | 1 to 10 | 0.1 to 1 | < 0.1 |  |
| C[C@H](NC(=O)c1c(N)nn2cccnc12)c1cc2cccc(Cl)c2c(=O)n1CC(O)CO (some centres unmarked) [Compound 238] | < 0.1 | 1 to 10 | 0.1 to 1 | < 0.1 | 0.1 to 1 | < 0.1 |  |
| C[C@H](NC(=O)c1c(N)nn2cccnc12)c1cc2cccc(-c3cncs3)c2c(=O)n1-c1ccccc1 [Compound 245] | < 0.1 | 1 to 10 | 1 to 10 | > 10 | 0.1 to 1 | < 0.1 |  |
| CC[C@H](NC(=O)c1c(N)nn2cccnc12)c1cc2cccc(Cl)c2c(=O)n1-c1ccccc1 [Compound 250] | < 0.1 | 1 to 10 | < 0.1 | < 0.1 | 0.1 to 1 | < 0.1 |  |
| Cc1c([C@H](C)NC(=O)c2c(N)nn3cccnc23)n(-c2ccccc2)c(=O)c2c(F)cccc12 [Compound 260] | < 0.1 | 1 to 10 | 0.1 to 1 | 0.1 to 1 | < 0.1 | < 0.1 |  |
| CNc1cccc2cc([C@H](C)NC(=O)c3c(N)nn4cccnc34)n(-c3ccccc3)c(=O)c12 [Compound 266] | 0.1 to 1 | 1 to 10 | > 10 | > 10 | 1 to 10 | < 0.1 |  |
| COc1cccc2cc([C@H](C)NC(=O)c3c(N)nn4cccnc34)n(-c3ccccc3)c(=O)c12 [Compound 270] | 0.1 to 1 | > 10 | 1 to 10 | > 10 | 1 to 10 | 0.1 to 1 |  |
| C#Cc1cccc2cc([C@H](C)NC(=O)c3c(N)nn4cccnc34)n(-c3ccccc3)c(=O)c12 [Compound 276] | < 0.1 | 0.1 to 1 | 0.1 to 1 | 0.1 to 1 | < 0.1 | < 0.1 |  |
| CC(C)[N+](C)(CCOC(=O)C1c2ccccc2Oc2ccccc21)C(C)C [propantheline] |  |  |  |  |  |  | intermediate plasma stability |
| CCCOc1cc(N)ccc1C(=O)OCCN(CC)CC [propoxycaine] |  |  |  |  |  |  | low plasma stability |

Further lines, with some results ahead:

| IC50 (RAJI p110 δ) [µM] | IC50 (PI3K α) [µM] | IC50 (PI3K δ) [µM] | IC50 (PI3K β) [µM] | IC50 (PI3K γ) [µM] | IC50 (Raw264.7 p110 γ) [µM] | Compound | plasma stability [1] |
| --- | --- | --- | --- | --- | --- | --- | --- |
| 0.1 to 1 | > 10 | 1 to 10 | 1 to 10 | 1 to 10 | 0.1 to 1 | C[C@H](NC(=O)c1c(N)nn2cccnc12)c1cc2ccsc2c(=O)n1-c1ccccc1 [Compound 198] |  |
| < 0.1 | 1 to 10 | 1 to 10 | > 10 | 0.1 to 1 | < 0.1 | CC(=O)Nc1ccc(-c2cccc3cc([C@H](C)NC(=O)c4c(N)nn5cccnc45)n(-c4ccccc4)c(=O)c23)cc1 [Compound 203] |  |
| < 0.1 | > 10 | 1 to 10 | > 10 | 0.1 to 1 | < 0.1 | C[C@H](NC(=O)c1c(N)ncc2cccnc12)c1cc2cccc(N3CCOCC3)c2c(=O)n1-c1ccccc1 [Compound 214] |  |
| < 0.1 | > 10 | 1 to 10 | 1 to 10 | 1 to 10 | < 0.1 | CC(NC(=O)c1c(N)nn2cccnc12)c1cc2cccc(Cl)c2nc1-c1ccccc1 (centres unmarked) [Compound 218] |  |
| 0.1 to 1 | > 10 | > 10 | > 10 | 1 to 10 | < 0.1 | COc1cc(-c2cccc3cc(C(C)NC(=O)c4c(N)nn5cccnc45)c(-c4ccccc4)nc23)ccn1 (centres unmarked) [Compound 219] |  |
| < 0.1 | 1 to 10 | 1 to 10 | > 10 | 1 to 10 | < 0.1 | COc1cc(-c2cccc3cc([C@H](C)NC(=O)c4c(N)nn5cccnc45)n(C)c(=O)c23)ccn1 [Compound 220] |  |
| 0.1 to 1 | 1 to 10 | 1 to 10 | > 10 | 0.1 to 1 | < 0.1 | C[C@H](NC(=O)c1c(N)nn2cccnc12)c1cc2cccc(-c3ccn[nH]3)c2c(=O)n1-c1ccccc1 [Compound 221] |  |
| < 0.1 | > 10 | 1 to 10 | > 10 | 0.1 to 1 | < 0.1 | COc1ccc(-c2cccc3cc([C@H](C)NC(=O)c4c(N)nn5cccnc45)n(-c4ccccc4)c(=O)c23)cn1 [Compound 223] |  |
| 0.1 to 1 | > 10 | 1 to 10 | 1 to 10 | 0.1 to 1 | < 0.1 | C[C@H](NC(=O)c1c(N)nn2cccnc12)c1cc2cccc(CO)c2c(=O)n1-c1ccccc1 [Compound 228] |  |
| < 0.1 | 1 to 10 | 0.1 to 1 | < 0.1 | 0.1 to 1 | < 0.1 | C=CCn1c([C@H](C)NC(=O)c2c(N)nn3cccnc23)cc2cccc(Cl)c2c1=O [Compound 235] |  |
| < 0.1 | > 10 | < 0.1 | < 0.1 | 1 to 10 | 0.1 to 1 | C[C@H](NC(=O)c1c(N)nn2cccnc12)c1cc2cccc(Cl)c2c(=O)n1CCN(C)C [Compound 242] |  |
| < 0.1 | 1 to 10 | 0.1 to 1 | 1 to 10 | < 0.1 | < 0.1 | C[C@H](NC(=O)c1c(N)nn2cccnc12)c1c(Br)c2cccc(Cl)c2c(=O)n1-c1ccccc1 [Compound 254] |  |
| 0.1 to 1 | > 10 | > 10 | > 10 | 1 to 10 | 0.1 to 1 | C[C@H](NC(=O)c1c(N)nn2cccnc12)c1cc2cccc(NCC(F)(F)F)c2c(=O)n1-c1ccccc1 [Compound 267] |  |
| < 0.1 | 1 to 10 | 0.1 to 1 | 0.1 to 1 | 0.1 to 1 | < 0.1 | C[C@H](NC(=O)c1c(N)nn2cccnc12)c1c(C#N)c2cccc(F)c2c(=O)n1-c1ccccc1 [Compound 269] |  |
| 0.1 to 1 | 1 to 10 | 1 to 10 | 1 to 10 | 0.1 to 1 | < 0.1 | C[C@H](NC(=O)c1c(N)nn2cccnc12)c1cc2cccc(-c3cccs3)c2c(=O)n1-c1ccccc1 [Compound 271] |  |
| < 0.1 | 0.1 to 1 | 0.1 to 1 | 0.1 to 1 | < 0.1 | < 0.1 | C[C@H](NC(=O)c1c(N)nn2cccnc12)c1cc2cccc(Cl)c2c(=O)n1CCN(C)S(C)(=O)=O [Compound 273] |  |
